Source: ChEMBL document CHEMBL5620370, “1,3-Thiazole derivatives as privileged structures for anti-Trypanosoma cruzi activity: Rational design, synthesis, in silico and in vitro studies” (Eur J Med Chem, 2023)
Activity calls are given as the source filed them. The calls are words filed in the database; no cut-off is given here.

How the values were obtained:
[1] = test system: Trypanosoma cruzi; assay: Antitrypanosomal activity against Trypanosoma cruzi Dm28 epimastigotes assessed as inhibition of parasite growth incubated for 96 hrs by Neubauer chamber based analysis; type: functional, organism-based; details: Dm28, 96 h
[2] = Selectivity index, ratio of CC50 for cytotoxicity against mouse RAW264.7 cells to IC50 for antitrypanosomal activity against Trypanosoma cruzi Dm28 epimastigotes assessed as inhibition of parasite growth; type: toxicity, cell-based; details: read-out: Ratio CC50/IC50
[3] = test system: Trypanosoma cruzi; assay: Antitrypanosomal activity against Trypanosoma cruzi Tulahuen amastigotes transfected in L929 cells assessed as inhibition of parasite growth incubated for 96 hrs by CPRG based spectrophotometric analysis; type: functional, organism-based; details: L929, 96 h
[4] = Cytotoxicity against mouse RAW264.7 cells assessed as inhibition of cell growth incubated for 72 hrs by MTT assay; type: toxicity, cell-based
[5] = test system: Trypanosoma cruzi; assay: Antitrypanosomal activity against Trypanosoma cruzi Y strain trypomastigotes transfected in African green monkey Vero cells assessed as inhibition of parasite growth incubated for 24 hrs by Neubauer chamber based analysis; type: functional, organism-based
[6] = Selectivity index, ratio of CC50 for cytotoxicity against mouse RAW264.7 cells to IC50 for antitrypanosomal activity against Trypanosoma cruzi Y strain trypomastigotes transfected in African green monkey Vero cells assessed as inhibition of parasite growth; type: toxicity, cell-based; details: read-out: Ratio CC50/IC50
[7] = Selectivity index, ratio of CC50 for cytotoxicity against mouse RAW264.7 cells to IC50 for antitrypanosomal activity against Trypanosoma cruzi Tulahuen amastigotes transfected in L929 cells assessed as inhibition of parasite growth; type: toxicity, cell-based; details: read-out: Ratio CC50/IC50
[8] = test system: Trypanosoma cruzi; assay: Induction of apoptosis in Trypanosoma cruzi Y strain trypomastigotes assessed as early apoptosis at 1 times IC50 incubated for 24 hrs by Annexin V-FITC/7AAD staining based flow cytometry; type: functional, organism-based
[9] = test system: Trypanosoma cruzi; assay: Induction of apoptosis in Trypanosoma cruzi Y strain trypomastigotes assessed as early apoptosis at 2 times IC50 incubated for 24 hrs by Annexin V-FITC/7AAD staining based flow cytometry; type: functional, organism-based
[10] = test system: Trypanosoma cruzi; assay: Induction of apoptosis in Trypanosoma cruzi Y strain trypomastigotes assessed as late apoptosis at 1 times IC50 incubated for 24 hrs by Annexin V-FITC/7AAD staining based flow cytometry; type: functional, organism-based
[11] = test system: Trypanosoma cruzi; assay: Induction of apoptosis in Trypanosoma cruzi Y strain trypomastigotes assessed as necrosis at 1 times IC50 incubated for 24 hrs by Annexin V-FITC/7AAD staining based flow cytometry; type: functional, organism-based
[12] = test system: Trypanosoma cruzi; assay: Induction of mitochondrial membrane potential loss in Trypanosoma cruzi Y strain trypomastigotes at 1 times IC50 incubated for 24 hrs by Rhodamine 123 staining based flow cytometry; type: organism-based
[13] = test system: Trypanosoma cruzi; assay: Induction of mitochondrial membrane potential loss in Trypanosoma cruzi Y strain trypomastigotes at 2 times IC50 incubated for 24 hrs by Rhodamine 123 staining based flow cytometry; type: organism-based
[14] = test system: Trypanosoma cruzi; assay: Induction of DNA damage in Trypanosoma cruzi Y strain trypomastigotes at 2 times IC50 incubated for 24 hrs by acridine orange staining based flow cytometry; type: functional, organism-based
[15] = test system: Trypanosoma cruzi; assay: Induction of DNA damage in Trypanosoma cruzi Y strain trypomastigotes at 1 times IC50 incubated for 24 hrs by acridine orange staining based flow cytometry; type: functional, organism-based
[16] = test system: Trypanosoma cruzi; assay: Induction of apoptosis in Trypanosoma cruzi Y strain trypomastigotes assessed as late apoptosis at 9.64 uM incubated for 24 hrs by Annexin V-FITC/7AAD staining based flow cytometry; type: functional, organism-based
[17] = test system: Trypanosoma cruzi; assay: Induction of apoptosis in Trypanosoma cruzi Y strain trypomastigotes assessed as necrosis at 9.64 uM incubated for 24 hrs by Annexin V-FITC/7AAD staining based flow cytometry; type: functional, organism-based
[18] = test system: Trypanosoma cruzi; assay: Induction of apoptosis in Trypanosoma cruzi Y strain trypomastigotes assessed as fold increase in early apoptosis incubated for 24 hrs by Annexin V-FITC/7AAD staining based flow cytometry; type: functional
[19] = test system: Trypanosoma cruzi; assay: Induction of apoptosis in Trypanosoma cruzi Y strain trypomastigotes assessed as fold increase in late apoptosis incubated for 24 hrs by Annexin V-FITC/7AAD staining based flow cytometry; type: functional
[20] = test system: Trypanosoma cruzi; assay: Induction of apoptosis in Trypanosoma cruzi Y strain trypomastigotes assessed as late apoptosis at 131.92 uM incubated for 24 hrs by Annexin V-FITC/7AAD staining based flow cytometry; type: functional, organism-based
[21] = test system: Trypanosoma cruzi; assay: Induction of apoptosis in Trypanosoma cruzi Y strain trypomastigotes assessed as necrosis at 131.92 uM incubated for 24 hrs by Annexin V-FITC/7AAD staining based flow cytometry; type: functional, organism-based
[22] = test system: Trypanosoma cruzi; assay: Induction of apoptosis in Trypanosoma cruzi Y strain trypomastigotes assessed as late apoptosis at 50.9 uM incubated for 24 hrs by Annexin V-FITC/7AAD staining based flow cytometry; type: functional, organism-based
[23] = test system: Trypanosoma cruzi; assay: Induction of apoptosis in Trypanosoma cruzi Y strain trypomastigotes assessed as necrosis at 50.9 uM incubated for 24 hrs by Annexin V-FITC/7AAD staining based flow cytometry; type: functional, organism-based

Row | IC50 [1] | IC50 [3] | IC50 [5] | SMILES | selectivity ratio [2] | CC50 at 72 h [4] | selectivity ratio [6] | selectivity ratio [7] | further results
1 | 8.62 µM | 12.9 µM | 2.64 µM | C/C(=N\Nc1nc(-c2ccc(-c3ccccc3)cc2)cs1)c1ccc(Cl)c(Cl)c1Cl | 7.22 | 62.2 µM | 23.6 | 4.83 | –
2 | – | – | 1.12 µM | C/C(=N\NC1NC(=O)CS1)c1ccc(Cl)cc1Cl (stereo unspecified) | – | – | – | – | –
3 | 3.48 µM | 3.65 µM | 45.3 µM | COc1ccc(-c2csc(N/N=C(\C)c3ccc(Cl)cc3Cl)n2)cc1 | 12.4 | 43.1 µM | 0.95 | 11.8 | Activity [8]: Active; Activity [9]: Active; Activity [10]: Active; Activity [11]: Active; Activity [12]: Active; Activity [13]: Active; Activity [14]: inactive; Activity [15]: inactive
4 | 7.55 µM | 10.6 µM | 17.9 µM | C/C(=N\Nc1nc(-c2ccc(Cl)cc2)cs1)c1ccc(Cl)cc1Cl | 7.3 | 55.1 µM | 3.07 | 5.21 | –
5 | 6.41 µM | 28.3 µM | 4.82 µM | C/C(=N\Nc1nc(-c2ccc(Cl)c(Cl)c2)cs1)c1ccc(Cl)cc1Cl | 15.2 | 97.3 µM | 20.2 | 3.44 | Activity [8]: Active; Activity [9]: Active; Activity [10]: Active; Activity [11]: Active; Activity [16]: Active; Activity [17]: Active; fold change (FC) [18]: 5; fold change (FC) [19]: 4; Activity [12]: inactive; Activity [13]: inactive; Activity [14]: Active
6 | 5.25 µM | 5.96 µM | – | C/C(=N\Nc1nc(-c2ccc(Br)cc2)cs1)c1ccc(Cl)c(Cl)c1Cl | 5.68 | 29.9 µM | – | 5 | –
7 | 19.4 µM | 27.9 µM | 21.5 µM | C/C(=N\Nc1nc(-c2ccc(F)cc2)cs1)c1ccc(Cl)c(Cl)c1Cl | 2.17 | 42.2 µM | 1.96 | 1.51 | Activity [8]: Active; Activity [9]: Active; Activity [10]: Active; Activity [11]: Active; Activity [12]: inactive; Activity [13]: inactive; Activity [14]: Active; Activity [15]: Active
8 | 8.42 µM | 4.46 µM | – | C/C(=N\Nc1nc(-c2cccc([N+](=O)[O-])c2)cs1)c1ccc(Cl)c(Cl)c1Cl | 3.47 | 29.2 µM | – | 6.55 | –
9 | 20.2 µM | 14.9 µM | 10.6 µM | C/C(=N\Nc1nc(-c2ccc(-c3ccccc3)cc2)cs1)c1ccc(Cl)cc1Cl | 3.96 | 80.1 µM | 7.58 | 5.38 | –
10 | 28.9 µM | 45.3 µM | – | C/C(=N\Nc1nc(-c2ccc([N+](=O)[O-])cc2)cs1)c1ccc(Cl)c(Cl)c1Cl | 3.05 | 88.5 µM | – | 1.95 | –
11 | 13.8 µM | 20.6 µM | 11.5 µM | C/C(=N\Nc1nc(-c2ccccc2)cs1)c1ccc(Cl)c(Cl)c1Cl | 2.18 | 30.2 µM | 2.61 | 1.46 | –
12 | 8.33 µM | 13.6 µM | 4.08 µM | C/C(=N\Nc1nc(-c2ccc(Cl)cc2Cl)cs1)c1ccc(Cl)c(Cl)c1Cl | 4.35 | 36.3 µM | 8.89 | 2.67 | –
13 | 7.42 µM | 21.3 µM | 45.9 µM | C/C(=N\Nc1nc(-c2ccccc2)cs1)c1ccc(Cl)cc1Cl | 5.76 | 42.8 µM | 0.93 | 2 | –
14 | 7.88 µM | 7.84 µM | 30.9 µM | COc1ccc(-c2csc(N/N=C(\C)c3ccc(Cl)c(Cl)c3Cl)n2)cc1 | 3.43 | 27.1 µM | 0.87 | 3.45 | –
15 | 10.9 µM | 25.4 µM | 66 µM | C/C(=N\Nc1nc(-c2ccc3ccccc3c2)cs1)c1ccc(Cl)c(Cl)c1Cl | 8.86 | 96.2 µM | 1.45 | 3.79 | Activity [8]: Active; Activity [9]: Active; Activity [10]: Active; Activity [11]: Active; Activity [20]: Active; Activity [21]: Active; Activity [12]: inactive; Activity [13]: inactive; Activity [14]: inactive; Activity [15]: inactive
16 | 32.1 µM | 25.4 µM | 25.4 µM | C/C(=N\Nc1nc(-c2ccc(Cl)c(Cl)c2)cs1)c1ccc(Cl)c(Cl)c1Cl | 1.39 | 44.9 µM | 1.76 | 1.76 | Activity [8]: Active; Activity [9]: Active; Activity [10]: Active; Activity [11]: Active; Activity [22]: Active; Activity [23]: Active; Activity [12]: Active; Activity [13]: Active; Activity [14]: inactive; Activity [15]: inactive
17 | 10.6 µM | 8.71 µM | 3.27 µM | C/C(=N\Nc1nc(-c2ccc(Cl)cc2)cs1)c1ccc(Cl)c(Cl)c1Cl | 3.73 | 39.6 µM | 12.1 | 4.55 | –

Row | SMILES | IC50 [1] | IC50 [3] | IC50 [5] | selectivity ratio [2] | CC50 at 72 h [4] | selectivity ratio [6] | selectivity ratio [7] | further results
18 | O=C(Cn1ccnc1[N+](=O)[O-])NCc1ccccc1 [BENZNIDAZOLE] | 56.9 µM | 5.64 µM | 41 µM | 0.77 | 44.2 µM | 1.07 | 7.83 | –
